Measurements: patent US20260240975A1, “VALIDATED HPV16-DERIVED S[…]” (Deutsches Krebsforschungszentrum Stiftung des öffentlichen …, priority 2023, published 2026)
Like-named read-outs stand apart in the source and are kept apart here. No end group written: not given here.

Tests used:
[1] = tested on: short-term antigen-specific T cell lines generated from PBMCs; parameters: key: +: ELISPOT: Immungenicity of the peptide shown by IFN-gamma ELISPOT analysis; * Highlights data from published resources; +*: * Highlights data from published resources; details: marked * (published resources), cited from earlier work
[2] = tested on: peptide-specific T cell cultures; assay: T cell phenotyping and intracellular cytokine staining (flow cytometry); type: cell-based, human; parameters: key: +: cytokine: Immunogenicity of the peptide shown by intracellular cytokine staining (IFN-gamma, TNF-alpha); details: IFN-gamma, TNF-alpha
[3] = tested on: short-term antigen-specific T cell lines generated from PBMCs; assay: Interferon-γ ELISpot assay on short-term T cell lines; type: cell-based, human; parameters: key: +: ELISPOT: Immungenicity of the peptide shown by IFN-gamma ELISPOT analysis; * Highlights data from published resources; +*: * Highlights data from published resources
[4] = tested on: HPV16-positive cells; assay: Cytotoxicity assay (VITAL FR / live-cell imaging) with peptide-specific CD8+ T cells; type: cell-based, human; parameters: key: +: cytotox: Ability of peptide-specific T cells to kill HPV16-positive cells
Description: The flow cytometry based VITAL FR cytotoxicity assay was used as published by Stanke et al. (Stanke et al., 2010) to assess whether peptide-specific T cells are able to specifically kill HPV-transformed target cells. Briefly, two HLA-A2^+ cell lines, a HPV16-negative (HPV16^−) control cell line (C33A) and a HPV16-positive (HPV16^+) target cell line (CaSki) were fluorescently labeled with either FarRed or CFSE and were co-incubated with peptide-specific CD8^+ T cells as effector cells. After 48 h co-incubation, the fluorescently labeled cells were analyzed by flow cytometry to determine the surviving cells and calculate the specific cytolytic function of the effector cells by the ratio of target and control cells.
CaSki and C33A cells were fluorescently labeled with CFSE and FarRed, respectively. Cells of both cell lines were harvested and resuspended in plain RPMI medium at a concentration of 1×10^6 cells/mL. For cell labeling, 5 μM CSFE were added to CaSki cells and 0.25 μM FarRed were added to C33A cells. The cells were incubated at 37° C. and the reaction was stopped after 10 min by addition of 50 mL RPMI with 10% FBS. The cells were centrifuged at 300 xg for 5 min, the supernatant was discarded and the cells were resuspended in their cell culture medium. The labeled cells were seeded in T25 cell culture flasks with 1-2×10^6 cells/flask.
On the next day, the labeled CaSki and C33A as well as the epitope-specific semi-long-term T cell lines (described in 1.6) were harvested. CD8^+ T cells were isolated from the epitope-specific semi-long-term T cell lines using the MACS CD8^+ T cell isolation kit (Miltenyi Biotec) according to the manufacturer's protocol for LS columns. The CD8^+ T cells were resuspended in T cell medium and added to wells of a F-bottom 96-well plate in serial dilutions to achieve triplicates of 6×10^4, 3×10^4, 1.5×10^4, 0.75×10^4 and 0.375×10^4 cells per well. The CaSki and C33A cells were mixed 1:1 in T cell medium and 3×10^3 cells were added to each well containing T cells. Thereby effector:target (E:T) ratios of […] were achieved. Additionally, triplicates of mixed target cells without T cells were seeded, which is referred to as E:T 0. After 48 h incubation at 37° C., 5% CO2, the cells were harvested and analyzed at a BD FACS Canto™ II analyzer using the BD FACS Diva Software Version 6. The obtained data were analyzed with the FlowJo software Version 10 by applying the same gating strategy to all samples. Subsequently, the equations (1) and (2) given below were applied in Excel (Microsoft Office 2016) to calculate specific killing.
Semi long-term T cell lines were set up to obtain high numbers of T cells, which are required for the analysis of epitope specific cytotoxic T cell responses in VITAL FR cytotoxicity assays. Autologous DCs were generated from PBMCs as described in 1.7 and loaded with the desired HPV16 peptide. PBMCs of the same donor were thawed and resuspended in T cell medium supplemented with rhIL-7 (10 ng/mL) and rhIL-15 (20 ng/mL). 1×10^7 PBMCs/well were seeded to a 24-well plate in a total volume of 1 mL/well. Peptide-loaded DCs were added in a ratio of 50:1 (PBMCs:DCs) in 1 mL rhIL-7 (10 ng/mL) and rhIL-15 (20 ng/mL) supplemented T cell medium to achieve a final volume of 2 mL. The cell cultures were fed with rhIL-2 (final concentration: 40 U/mL) every other day. If the medium turned yellow the feeding was combined with a half medium change with 1 mL fresh IL-2 supplemented T cell medium. After eight days, the peptide stimulation with peptide-loaded DCs was repeated and cultivation was continued. On day 15, the T cell lines were harvested and used for CD8^+ T cell isolation and cytotoxicity assays.
In addition to the VITAL FR assay described herein above, a newly established live-cell imaging-based cytotoxicity assay was applied. […]

## 1 (ISEYRHYCY; Human papillomavirus 16) [compound 1]
[1]; HLA restriction A01
  ELISpot: +*

## 2 (HGDTPTLHEY; Human papillomavirus 16) [compound 2]
[1]; HLA restriction A01
  ELISpot: +*

## 3 (TIHDIILQCVY; Human papillomavirus 16) [compound 3]
[2]; HLA restriction A01
  cytokine: +
[3]; HLA restriction A01
  ELISpot: +

## 4 (YGVCDKCLKFY; Human papillomavirus 16) [compound 4]
[2]; HLA restriction A01
  cytokine: +
[3]; HLA restriction A01
  ELISpot: +

## 5 (EYRYYCYSLY; Human papillomavirus 16) [compound 5]
[2]; HLA restriction A01
  cytokine: +
[3]; HLA restriction A01
  ELISpot: +

## 6 (DLQPETTDLY; Human papillomavirus 16) [compound 6]
[2]; HLA restriction A01
  cytokine: +
[3]; HLA restriction A01
  ELISpot: +

## 7 (TTDLYCYEQ; Human papillomavirus 16) [compound 7]
[2]; HLA restriction A01
  cytokine: +
[3]; HLA restriction A01
  ELISpot: +

## 24 (LLMGTLGIVC; Human papillomavirus 16) [compound 24]
[2]; HLA restriction A02
  cytokine: +
[3]; HLA restriction A02
  ELISpot: +

## 39 (FAFRDLCIVYR; Human papillomavirus 16) [compound 39]
[2]; HLA restriction A11
  cytokine: +
[3]; HLA restriction A11
  ELISpot: +

## 40 (AFRDLCIVYR; Human papillomavirus 16) [compound 40]
[2]; HLA restriction A11
  cytokine: +
[3]; HLA restriction A11
  ELISpot: +

## 41 (IVYRDGNPY; Human papillomavirus 16) [compound 41]
[2]; HLA restriction A11
  cytokine: +
[3]; HLA restriction A11
  ELISpot: +

## 42 (NPYAVCDKCLK; Human papillomavirus 16) [compound 42]
[2]; HLA restriction A11
  cytokine: +
[3]; HLA restriction A11
  ELISpot: +

## 44 (AVCDKCLKFYS; Human papillomavirus 16) [compound 44]
[2]; HLA restriction A11
  cytokine: +
[3]; HLA restriction A11
  ELISpot: +

## 45 (VCDKCLKFYSK; Human papillomavirus 16) [compound 45]
[2]; HLA restriction A11
  cytokine: +
[3]; HLA restriction A11
  ELISpot: +

## 46 (GIVCPICSQK; Human papillomavirus 16) [compound 46]
[2]; HLA restriction A03
  cytokine: +
[3]; HLA restriction A03
  ELISpot: +

## 55 (DLLIRCINCQK; Human papillomavirus 16) [compound 55]
[2]; HLA restriction A11
  cytokine: +
[3]; HLA restriction A11
  ELISpot: +

## 62 (TFCCKCDSTL; Human papillomavirus 16) [compound 62]
[3]; HLA restriction A24
  ELISpot: +
[4]; HLA restriction A24
  cytotox: +

## 66 (PDRAHYNIVTF; Human papillomavirus 16) [compound 66]
[2]; HLA restriction A24
  cytokine: +
[3]; HLA restriction A24
  ELISpot: +

## 67 (DRAHYNIVTF; Human papillomavirus 16) [compound 67]
[2]; HLA restriction A24
  cytokine: +
[3]; HLA restriction A24
  ELISpot: +

## 68 (HYNIVTFCC; Human papillomavirus 16) [compound 68]
[2]; HLA restriction A24
  cytokine: +
[3]; HLA restriction A24
  ELISpot: +

## 71 (HYCYSLYGTTL; Human papillomavirus 16) [compound 71]
[2]; HLA restriction A24
  cytokine: +
[3]; HLA restriction A24
  ELISpot: +

## 76 (RPRKLPQL; Human papillomavirus 16) [compound 76]
[2]; HLA restriction B07
  cytokine: +
[3]; HLA restriction B07
  ELISpot: +

## 77 (TPTLHEYML; Human papillomavirus 16) [compound 77]
[1]; HLA restriction B07
  ELISpot: *

## 78 (RPRKLPQLCTE; Human papillomavirus 16) [compound 78]
[2]; HLA restriction B07
  cytokine: +
[3]; HLA restriction B07
  ELISpot: +

## 80 (NIRGRWTGRCM; Human papillomavirus 16) [compound 80]
[2]; HLA restriction B07
  cytokine: +
[3]; HLA restriction B07
  ELISpot: +
[3]; HLA restriction B15
  ELISpot: +

## 81 (EPDRAHYNIV; Human papillomavirus 16) [compound 81]
[2]; HLA restriction B07
  cytokine: +
[3]; HLA restriction B07
  ELISpot: +

## 85 (KQQLLRREVY; Human papillomavirus 16) [compound 85]
[2]; HLA restriction B15
  cytokine: +
[3]; HLA restriction B15
  ELISpot: +

## 86 (AFRDLCIVY; Human papillomavirus 16) [compound 86]
[2]; HLA restriction B15
  cytokine: +
[3]; HLA restriction B15
  ELISpot: +

## 88 (GQAEPDRAHY; Human papillomavirus 16) [compound 88]
[2]; HLA restriction B15
  cytokine: +
[3]; HLA restriction B15
  ELISpot: +

## 95 (YRHYCYSVY; Human papillomavirus 16) [compound 95]
[2]; HLA restriction B15
  cytokine: +
[3]; HLA restriction B15
  ELISpot: +

## 106 (CQKPLCPEE; Human papillomavirus 16) [compound 106]
[3]; HLA restriction B15
  ELISpot: +

## 107 (KQRHLDKKQRF; Human papillomavirus 16) [compound 107]
[3]; HLA restriction B15
  ELISpot: +

## 108 (KQRFHNIRGRW; Human papillomavirus 16) [compound 108]
[2]; HLA restriction B15
  cytokine: +
[3]; HLA restriction B15
  ELISpot: +

## 109 (TLHEYMLDL; Human papillomavirus 16) [compound 109]
[3]; HLA restriction B15
  ELISpot: +

## 110 (GQAEPDRAH; Human papillomavirus 16) [compound 110]
[3]; HLA restriction B15
  ELISpot: +

## 112 (TTDLYCYEQL; Human papillomavirus 16) [compound 112]
[3]; HLA restriction A01
  ELISpot: +

## 113 (SEYRHYCY; Human papillomavirus 16) [compound 113]
[3]; HLA restriction A01
  ELISpot: +

## 114 (IHEIILECVY; Human papillomavirus 16) [compound 114]
[3]; HLA restriction A01
  ELISpot: +

## 116 (GTTLEQQYNK; Human papillomavirus 16) [compound 116]
[3]; HLA restriction A03
  ELISpot: +

## 117 (RHYCYSLY; Human papillomavirus 16) [compound 117]
[2]; HLA restriction A03
  cytokine: 1
[3]; HLA restriction A03
  ELISpot: +

## 119 (HYNIVTFC; Human papillomavirus 16) [compound 119]
[3]; HLA restriction A24
  ELISpot: +

## 122 (RPRKLPDLCT; Human papillomavirus 16) [compound 122]
[2]; HLA restriction B07
  cytokine: +
[3]; HLA restriction B07
  ELISpot: +

## 123 (CPDEKQRHL; Human papillomavirus 16) [compound 123]
[3]; HLA restriction B07
  ELISpot: +

## 124 (LPQLCTELQT; Human papillomavirus 16) [compound 124]
[3]; HLA restriction B07
  ELISpot: +

## 126 (KISEYRHY; Human papillomavirus 16) [compound 126]
[3]; HLA restriction B15
  ELISpot: +

## 127 (RGRWTGRCM; Human papillomavirus 16) [compound 127]
[3]; HLA restriction B15
  ELISpot: +

## 128 (AGQAEPDRAHY; Human papillomavirus 16) [compound 128]
[3]; HLA restriction B15
  ELISpot: +

## 129 (FYSKISEY; Human papillomavirus 16) [compound 129]
[3]; HLA restriction B15
  ELISpot: +

## IRTLEDLLMGT [compound 33]
[4]; HLA restriction A02
  cytotox: +

## LLMGTLGIVCP [compound 25]
[4]; HLA restriction A02
  cytotox: +

## LMGTLGIVCPI [compound 12]
[4]; HLA restriction A02
  cytotox: +

## MGTLGIVCPI [compound 14]
[4]; HLA restriction A02
  cytotox: +

## RLCVQSTHV [compound 11]
[4]; HLA restriction A02
  cytotox: +

## TTIHDIILECV [compound 30]
[4]; HLA restriction A02
  cytotox: +

## YMLDLQPE [compound 13]
[4]; HLA restriction A02
  cytotox: +
